{"source": "PubChem BioAssay AID1963864", "about": "(Molecular Pharmacology Branch, DTP, NCI, 2024);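 note: drug exposure lasted seven days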;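 for viability, T/C: 100% = DMSO vehicle wells and lower means fewer viable cells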", "system": "KRAS PDC multicell spheroid viability", "assay": "Anticancer human tumor 521955-158-R6-J3-PDC patient-derived pancreatic carcinoma cell line growth inhibition [KRAS2]", "conditions": "for viability, T/C: stronger effect = lower value", "source_text": "Multicellular complex tumor spheroid response to RAS pathway inhibitors in combination with a targeted agents in patient-derived cell lines with oncogenic KRAS variants from multiple cancer types\nA high-throughput screen of multi-cell type tumor spheroids was designed to identify active combinations of targeted small molecules and KRAS pathway inhibitors. Complex spheroids include a stromal component modeled by human endothelial cells (HUVEC) and fibroblasts modeled by human mesenchymal stem cells (MSCs). The concentration ranges selected for each drug and investigational agent were based upon clinically achievable concentrations if the clinical Cmax of the agent was known.\nCompounds. The drugs and investigational agents: BI-3406 (NSC825286), BAY-293 (NSC824723), batoprotafib (TNO155; NSC825523), sotorasib (AMG 510; NSC818433), MRTX1257 (NSC819558), elimusertib (BAY 1895344; NSC800525), molibresib (GSK525762; NSC774829), temuterkib (LY3214996; NSC803410), venetoclax (NSC766270), alisertib (NSC759677), olaparib (NSC753686), talazoparib (NSC767125), erdafitinib (NSC781556), ipatasertib (NSC767898), cabozantinib (NSC761068), nintedanib (NSC756659), abemaciclib (NSC768073), docetaxel (NSC628503), trametinib (NSC758246), and sapanisertib (NSC764658) were obtained from the National Cancer Institute (NCI) Developmental Therapeutics Program Chemical Repository. The FDA-approved anticancer drug set is available from the Developmental Therapeutics Program. […] The stock solutions were prepared in dimethyl sulfoxide (DMSO, Sigma-Aldrich, St. Louis, MO, cat. D2650) at 800-fold the tested concentration and stored at -70 degrees C prior to their use. All drugs and investigational agents were tested over a range starting from a high concentration at or near the clinical Cmax and decreasing in half-log increments. If the clinical Cmax for an agent had not been determined, the highest concentration tested was 10 microM.\nCell Culture. All cells were maintained in an incubator at 37 degrees C and 5% CO2 with 95% humidity. The PDC lines were cultured according to standard operating procedures established by the NCI PDMR (https://pdmr.cancer.gov/sops/default.htm). Briefly, all PDCs were thawed and cultured in Matrigel-coated flasks prepared with a working solution of 1X Ham's F-12 nutrient mix, without supplementation (Invitrogen, Waltham, MA, cat. 11765054), 100 U/mL penicillin-streptomycin (Invitrogen, cat. 15140122), and 2.5% Matrigel (Corning Inc., Corning, NY, cat. 354248) for the first three passages. All PDCs were cultured in complete DMEM/F-12 media containing advanced DMEM/F-12 (Invitrogen, cat. 12634028), 4.9% defined fetal bovine serum, heat inactivated (HyClone Laboratories Inc., Logan, UT, cat. SH30070.03HI), 389 ng/mL hydrocortisone (Sigma-Aldrich, cat. H4001), 9.7 ng/mL human EGF recombinant protein (Invitrogen, cat. PHG0313), 23.4 microg/mL adenine (Sigma-Aldrich, cat. A2786), 97.3 U/mL penicillin-streptomycin (Invitrogen, cat. 15140122), 1.9 mM L-glutamine (Invitrogen, cat. 25030081), and 9.7 microM Y-27632 dihydrochloride (Tocris Bioscience, Bristol, United Kingdom, cat. 1254). The PDCs were cultured in complete DMEM/F12 media without 9.7 microM Y-27632 dihydrochloride for at least two passages prior to the screen. The established cell line HOP-62 was cultured in RPMI 1640 medium, HEPES (Invitrogen, cat. 22400105) with 10% defined fetal bovine serum (HyClone Laboratories Inc., cat. SH30070.03) and 2 mM L-glutamine (Invitrogen, cat. 25030081). The pooled donor HUVEC were cultured in endothelial cell growth medium 2 (PromoCell, Heidelberg, Germany, cat. C-22011) and the hMSC were cultured in mesenchymal stem cell growth medium 2 (PromoCell, cat. C-28009). For all experiments, HUVEC and hMSC were used at passages </=5, while the malignant cell lines were used at passages </=15. […]"}
{"smiles": "COc1cc2nccc(Oc3ccc(NC(=O)C4(C(=O)Nc5ccc(F)cc5)CC4)cc3)c2cc1OC", "values": [{"measurement": "viability, T/C", "setting": "compound 0.316 µM", "value": "95.7% [middle of 5 runs]"}, {"measurement": "IC50", "setting": "curve of compound", "value": "> 10", "unit": "µM"}]}
{"smiles": "O=C(c1cc(Cc2n[nH]c(=O)c3ccccc23)ccc1F)N1CCN(C(=O)C2CC2)CC1", "note": "+ CC1OCC2(CCN(c3cnc(Sc4ccnc(N)c4Cl)c(N)n3)CC2)C1N", "values": [{"measurement": "IC50", "setting": "curve of first compound, second compound 0.1 µM", "value": "> 10", "unit": "µM"}, {"measurement": "IC50", "setting": "curve of first compound, second compound 0.316 µM", "value": "> 10", "unit": "µM"}, {"measurement": "IC50", "setting": "curve of first compound, second compound 1 µM", "value": "> 10", "unit": "µM"}, {"measurement": "IC50", "setting": "curve of first compound, second compound 3.16 µM", "value": "> 10", "unit": "µM"}, {"measurement": "IC50", "setting": "curve of first compound, second compound 10 µM", "value": "> 10", "unit": "µM"}, {"measurement": "viability, T/C", "setting": "second compound 0.1 µM, first compound 0.0316 µM", "value": 83, "unit": "%"}, {"measurement": "viability, T/C", "setting": "second compound 0.1 µM, first compound 0.1 µM", "value": 79.6, "unit": "%"}, {"measurement": "viability, T/C", "setting": "second compound 0.1 µM, first compound 0.316 µM", "value": 75.8, "unit": "%"}, {"measurement": "viability, T/C", "setting": "second compound 0.1 µM, first compound 1 µM", "value": 69.6, "unit": "%"}, {"measurement": "viability, T/C", "setting": "second compound 0.1 µM, first compound 3.16 µM", "value": 73.5, "unit": "%"}, {"measurement": "viability, T/C", "setting": "second compound 0.1 µM, first compound 10 µM", "value": 84.1, "unit": "%"}, {"measurement": "viability, T/C", "setting": "second compound 0.316 µM, first compound 0.0316 µM", "value": 83.8, "unit": "%"}, {"measurement": "viability, T/C", "setting": "second compound 0.316 µM, first compound 0.1 µM", "value": 85.8, "unit": "%"}, {"measurement": "viability, T/C", "setting": "second compound 0.316 µM, first compound 0.316 µM", "value": 84.1, "unit": "%"}, {"measurement": "viability, T/C", "setting": "second compound 0.316 µM, first compound 1 µM", "value": 74.8, "unit": "%"}, {"measurement": "viability, T/C", "setting": "second compound 0.316 µM, first compound 3.16 µM", "value": 66.2, "unit": "%"}, {"measurement": "viability, T/C", "setting": "second compound 0.316 µM, first compound 10 µM", "value": 69.5, "unit": "%"}, {"measurement": "viability, T/C", "setting": "second compound 1 µM, first compound 0.0316 µM", "value": 75.8, "unit": "%"}, {"measurement": "viability, T/C", "setting": "second compound 1 µM, first compound 0.1 µM", "value": 78.2, "unit": "%"}, {"measurement": "viability, T/C", "setting": "second compound 1 µM, first compound 0.316 µM", "value": 81, "unit": "%"}, {"measurement": "viability, T/C", "setting": "second compound 1 µM, first compound 1 µM", "value": 76, "unit": "%"}, {"measurement": "viability, T/C", "setting": "second compound 1 µM, first compound 3.16 µM", "value": 71.9, "unit": "%"}, {"measurement": "viability, T/C", "setting": "second compound 1 µM, first compound 10 µM", "value": 75.9, "unit": "%"}, {"measurement": "viability, T/C", "setting": "second compound 3.16 µM, first compound 0.0316 µM", "value": 96, "unit": "%"}, {"measurement": "viability, T/C", "setting": "second compound 3.16 µM, first compound 0.1 µM", "value": 98.6, "unit": "%"}, {"measurement": "viability, T/C", "setting": "second compound 3.16 µM, first compound 0.316 µM", "value": 88, "unit": "%"}, {"measurement": "viability, T/C", "setting": "second compound 3.16 µM, first compound 1 µM", "value": 75.9, "unit": "%"}, {"measurement": "viability, T/C", "setting": "second compound 3.16 µM, first compound 3.16 µM", "value": 78.3, "unit": "%"}, {"measurement": "viability, T/C", "setting": "second compound 3.16 µM, first compound 10 µM", "value": 72.1, "unit": "%"}, {"measurement": "viability, T/C", "setting": "second compound 10 µM, first compound 0.0316 µM", "value": 85.3, "unit": "%"}, {"measurement": "viability, T/C", "setting": "second compound 10 µM, first compound 0.1 µM", "value": 85.6, "unit": "%"}, {"measurement": "viability, T/C", "setting": "second compound 10 µM, first compound 0.316 µM", "value": 61.5, "unit": "%"}, {"measurement": "viability, T/C", "setting": "second compound 10 µM, first compound 1 µM", "value": 70.3, "unit": "%"}, {"measurement": "viability, T/C", "setting": "second compound 10 µM, first compound 3.16 µM", "value": 70.8, "unit": "%"}, {"measurement": "viability, T/C", "setting": "second compound 10 µM, first compound 10 µM", "value": 63.9, "unit": "%"}]}
{"smiles": "CC(C)NCC(C(=O)N1CCN(c2ncnc3c2C(C)CC3O)CC1)c1ccc(Cl)cc1", "note": "(centres undefined)", "values": [{"measurement": "viability, T/C", "setting": "compound 0.0316 µM", "value": "94.6% [middle of 5 runs]"}, {"measurement": "viability, T/C", "setting": "compound 0.1 µM", "value": "85.2% [middle of 5 runs]"}, {"measurement": "viability, T/C", "setting": "compound 0.316 µM", "value": "83.1% [middle of 5 runs]"}, {"measurement": "viability, T/C", "setting": "compound 1 µM", "value": "77% [middle of 5 runs]"}, {"measurement": "viability, T/C", "setting": "compound 3.16 µM", "value": "76.1% [middle of 5 runs]"}, {"measurement": "viability, T/C", "setting": "compound 10 µM", "value": "70.1% [middle of 5 runs]"}, {"measurement": "IC50", "setting": "curve of compound", "value": "> 10", "unit": "µM"}]}
